System: MCF-7 cells
Test: Cytotoxicity assay (ATPLite cell viability, 72 h) on MCF-7 cells
Format: cell-based
Conditions: Homo sapiens, MCF7; 72 hours incubation, triplicate, ATP levels (ATPLite), inhibition of growth vs DMSO only control
Protocol: Preferred compounds were analyzed for their ability to inhibit growth of tumour cells (e.g. MCF7, HL60, LL2, HeLa, PC-3, A549 and A375 cells) in vitro. Growth inhibition was tested at various concentrations in a 10 point two fold serial dilution and cells were incubated under standard mammalian tissue culture conditions for 72 hours in triplicate. Cell viability was measured by measuring ATP levels in viable cells using the ATPLite kit (PerkinElmer) as described in the user manual. Raw data was transformed to percentage inhibition of growth compared to a DMSO only control and values were expressed as IC50 in micromolar calculated using XLfit (IDBS).

Compound | IC50
COC(=O)c1ccc(C)c(NS(=O)(=O)c2ccc(OC)cc2)c1 [Compound (IV), 3-[[(4-methoxyphenyl)sulfonyl]amino]-4-methyl-benzoic acid methyl ester] | 230 nM
COC(=O)c1ccc(C)c(NS(=O)(=O)c2ccc(Cl)cc2)c1 [Compound (VI), 3-[[(4-chlorophenyl)sulfonyl]amino]-4-methyl-benzoic acid methyl ester] | 1100 nM
COC(=O)c1ccc(C)c(NS(=O)(=O)c2ccc(C)cc2)c1 [Compound (IX), 3-[[(4-methylphenyl)sulfonyl]amino]-4-methyl-benzoic acid methyl ester] | 280 nM
CCOc1ccc(S(=O)(=O)Nc2cc(C(=O)OC)ccc2C)cc1 [Compound (V), 3-[[(4-ethoxyphenyl)sulfonyl]amino]-4-methyl-benzoic acid methyl ester] | 160 nM

— patent publication US20110060043A1, “INHIBITORS OF CELL PROLIFERATION AND USES THEREOF” (European Molecular Biology Laboratory (EMBL), priority 2008, published 2011)
